Data reported in publication PMC5224920, “Assessing the mechanism and therapeutic potential of modulators of the human Mediator complex-associated protein kinases” (eLife, 2016).

Test system: 12 single or co-culture in vitro tissue models of primary cells
Assay: Culture/co-culture cell model panel, extracellular biomarkers (DiscoveRx); on CCL2/MCP-1: reference of the scale not given here; on CD38: reference of the scale not given here; on CD40: reference of the scale not given here; on CD69: reference of the scale not given here; on CXCL8/IL-8: reference of the scale not given here; on CXCL9/MIG: reference of the scale not given here; on IL-1alpha: reference of the scale not given here; on M-CSF: reference of the scale not given here; on PBMC Cytotoxicity: reference of the scale not given here
Format: cell-based, human
[1] = /Mphg Huvec+macrophages, 1.00E0 nM
[2] = /Mphg Huvec+macrophages, 1.00E1 nM
[3] = /Mphg Huvec+macrophages, 1.00E2 nM
[4] = /Mphg Huvec+macrophages, 1.00E3 nM
[5] = /Mphg Huvec+macrophages, 1.00E4 nM

Cn1ncc2cc(-c3cnc(N)c(Cl)c3N3CCC4(CCNC4=O)CC3)ccc21 [CMPD 3] showed a CCL2/MCP-1 (/HDFNo, 1.00E4 nM) of 0.044, a CD54/ICAM-1 (/HDFNo, 1.00E4 nM) of -0.029 and a CD106/VCAM-1 (/HDFNo, 1.00E4 nM) of 0.030. For the same compound, the “Collagen I” value (/HDFNo, 1.00E4 nM) was 0.106, the “Collagen III” value (/HDFNo, 1.00E4 nM) was 0.143 and the CCL2/MCP-1 [1] was 0.039. For the same compound, the CCL3/MIP-1alpha [1] was 0.008, the CD40 [1] was 0.007 and the CD69 [1] was 0.028. The CD106/VCAM-1 [1] was 0.039, the CXCL8/IL-8 [1] was 0.039 and the IL-1alpha [1] was 0.034. For the same compound, the M-CSF [1] was -0.015, the SRB [1] was -0.00253 and the SRB-Mphg [1] was 0.009. For the same compound, the sIL-10 [1] was 0.013, the CCL2/MCP-1 [2] was -0.0006 and the CCL3/MIP-1alpha [2] was -0.011. For the same compound, the CD40 [2] was -0.026, the CD69 [2] was 0.018 and the CD106/VCAM-1 [2] was 0.030. The CXCL8/IL-8 [2] was -0.00563, the IL-1alpha [2] was 0.012 and the M-CSF [2] was -0.035. The SRB [2] was -0.012, the SRB-Mphg [2] was 0.002 and the sIL-10 [2] was 0.075. The CCL2/MCP-1 [3] was -0.061, the CCL3/MIP-1alpha [3] was -0.020 and the CD40 [3] was 0.012. The CD69 [3] was 0.043, the CD106/VCAM-1 [3] was 0.019 and the CXCL8/IL-8 [3] was -0.007. It also gave an IL-1alpha [3] of 0.025, a M-CSF [3] of -0.036 and an SRB [3] of -0.017. It also gave an SRB-Mphg [3] of 0.012, a sIL-10 [3] of -8.75e-5 and a CCL2/MCP-1 [4] of -0.073. For the same compound, the CCL3/MIP-1alpha [4] was -0.030, the CD40 [4] was -0.015 and the CD69 [4] was 0.039. For the same compound, the CD106/VCAM-1 [4] was -0.014, the CXCL8/IL-8 [4] was -0.034 and the IL-1alpha [4] was -0.038. It also gave a M-CSF [4] of -0.070, an SRB [4] of -0.017 and an SRB-Mphg [4] of -0.00429. The sIL-10 [4] was -0.159, the CCL2/MCP-1 [5] was -0.116 and the CCL3/MIP-1alpha [5] was 0.039. For the same compound, the CD40 [5] was -0.005, the CD69 [5] was 0.023 and the CD106/VCAM-1 [5] was 0.022. It also gave a CXCL8/IL-8 [5] of 0.007, an IL-1alpha [5] of -0.039 and a M-CSF [5] of 0.009. For the same compound, the SRB [5] was -0.059, the SRB-Mphg [5] was -0.013 and the sIL-10 [5] was -0.238. It also gave a CCL2/MCP-1 (/TH2, 1.00E0 nM) of 0.045, a CCL26/Eotaxin-3 (/TH2, 1.00E0 nM) of -0.045 and a CD38 (/TH2, 1.00E0 nM) of 0.012. It also gave a CD40 (/TH2, 1.00E0 nM) of -0.010, a CD69 (/TH2, 1.00E0 nM) of -0.0036 and a CD87/uPAR (/TH2, 1.00E0 nM) of -0.045. The CD106/VCAM-1 (/TH2, 1.00E0 nM) was 0.030, the CXCL8/IL-8 (/TH2, 1.00E0 nM) was 0.048 and the CXCL9/MIG (/TH2, 1.00E0 nM) was 0.020. For the same compound, the “Collagen IV” value (/TH2, 1.00E0 nM) was 0.013, the “PBMC Cytotoxicity” value (/TH2, 1.00E0 nM) was -0.00216 and the SRB (/TH2, 1.00E0 nM) was -0.019. The sIL-17A (/TH2, 1.00E0 nM) was 0.036, the sIL-17F (/TH2, 1.00E0 nM) was -0.022 and the CCL2/MCP-1 (/TH2, 1.00E1 nM) was 0.002. For the same compound, the CCL26/Eotaxin-3 (/TH2, 1.00E1 nM) was -0.124, the CD38 (/TH2, 1.00E1 nM) was -0.011 and the CD40 (/TH2, 1.00E1 nM) was -0.078. For the same compound, the CD69 (/TH2, 1.00E1 nM) was -0.011, the CD87/uPAR (/TH2, 1.00E1 nM) was -0.094 and the CD106/VCAM-1 (/TH2, 1.00E1 nM) was 0.034. The CXCL8/IL-8 (/TH2, 1.00E1 nM) was -0.056, the CXCL9/MIG (/TH2, 1.00E1 nM) was 0.00749 and the “Collagen IV” value (/TH2, 1.00E1 nM) was 0.029. For the same compound, the “PBMC Cytotoxicity” value (/TH2, 1.00E1 nM) was -0.00148, the SRB (/TH2, 1.00E1 nM) was -0.057 and the sIL-17A (/TH2, 1.00E1 nM) was 0.095. It also gave a sIL-17F (/TH2, 1.00E1 nM) of -0.033, a CCL2/MCP-1 (/TH2, 1.00E2 nM) of -0.036 and a CCL26/Eotaxin-3 (/TH2, 1.00E2 nM) of -0.132. The CD38 (/TH2, 1.00E2 nM) was -0.00367, the CD40 (/TH2, 1.00E2 nM) was -0.095 and the CD69 (/TH2, 1.00E2 nM) was -0.007. For the same compound, the CD87/uPAR (/TH2, 1.00E2 nM) was -0.133, the CD106/VCAM-1 (/TH2, 1.00E2 nM) was 0.023 and the CXCL8/IL-8 (/TH2, 1.00E2 nM) was -0.038. The CXCL9/MIG (/TH2, 1.00E2 nM) was 0.008, the “Collagen IV” value (/TH2, 1.00E2 nM) was 0.005 and the “PBMC Cytotoxicity” value (/TH2, 1.00E2 nM) was -0.011. The SRB (/TH2, 1.00E2 nM) was -0.080, the sIL-17A (/TH2, 1.00E2 nM) was 0.189 and the sIL-17F (/TH2, 1.00E2 nM) was 0.137. It also gave a CCL2/MCP-1 (/TH2, 1.00E3 nM) of -0.046, a CCL26/Eotaxin-3 (/TH2, 1.00E3 nM) of -0.134 and a CD38 (/TH2, 1.00E3 nM) of -0.012. The CD40 (/TH2, 1.00E3 nM) was -0.080, the CD69 (/TH2, 1.00E3 nM) was -0.021 and the CD87/uPAR (/TH2, 1.00E3 nM) was -0.141. It also gave a CD106/VCAM-1 (/TH2, 1.00E3 nM) of 0.028, a CXCL8/IL-8 (/TH2, 1.00E3 nM) of -0.057 and a CXCL9/MIG (/TH2, 1.00E3 nM) of 0.006. The “Collagen IV” value (/TH2, 1.00E3 nM) was 0.010, the “PBMC Cytotoxicity” value (/TH2, 1.00E3 nM) was -0.023 and the SRB (/TH2, 1.00E3 nM) was -0.067. It also gave a sIL-17A (/TH2, 1.00E3 nM) of 0.134, a sIL-17F (/TH2, 1.00E3 nM) of -0.079 and a CCL2/MCP-1 (/TH2, 1.00E4 nM) of -0.053. For the same compound, the CCL26/Eotaxin-3 (/TH2, 1.00E4 nM) was -0.136, the CD38 (/TH2, 1.00E4 nM) was -0.016 and the CD40 (/TH2, 1.00E4 nM) was -0.061. It also gave a CD69 (/TH2, 1.00E4 nM) of -0.044, a CD87/uPAR (/TH2, 1.00E4 nM) of -0.146 and a CD106/VCAM-1 (/TH2, 1.00E4 nM) of 0.003. For the same compound, the CXCL8/IL-8 (/TH2, 1.00E4 nM) was -0.053, the CXCL9/MIG (/TH2, 1.00E4 nM) was 0.006 and the “Collagen IV” value (/TH2, 1.00E4 nM) was 0.012. The “PBMC Cytotoxicity” value (/TH2, 1.00E4 nM) was -0.036, the SRB (/TH2, 1.00E4 nM) was -0.126 and the sIL-17A (/TH2, 1.00E4 nM) was 0.054. It also gave a sIL-17F (/TH2, 1.00E4 nM) of -0.082, a CCL26/Eotaxin-3 (BENo, 1.00E0 nM) of 0.067 and a CD54/ICAM-1 (BENo, 1.00E0 nM) of 0.017. It also gave a CD87/uPAR (BENo, 1.00E0 nM) of 0.077, a CXCL8/IL-8 (BENo, 1.00E0 nM) of 0.016 and a CXCL9/MIG (BENo, 1.00E0 nM) of 0.068. The CXCL10/IP-10 (BENo, 1.00E0 nM) was 0.115, the CXCL11/I-TAC (BENo, 1.00E0 nM) was 0.039 and the EGFR (BENo, 1.00E0 nM) was 0.00071. The HLA-DR (BENo, 1.00E0 nM) was 0.048, the IL-1alpha (BENo, 1.00E0 nM) was 0.048 and the “Keratin 8/18” value (BENo, 1.00E0 nM) was 0.051. For the same compound, the MMP-1 (BENo, 1.00E0 nM) was 0.028, the MMP-9 (BENo, 1.00E0 nM) was 0.043 and the PAI-I (BENo, 1.00E0 nM) was 0.010. It also gave an SRB (BENo, 1.00E0 nM) of 0.002, a tPA (BENo, 1.00E0 nM) of 0.014 and a uPA (BENo, 1.00E0 nM) of 0.036. The CCL26/Eotaxin-3 (BENo, 1.00E1 nM) was -0.035, the CD54/ICAM-1 (BENo, 1.00E1 nM) was -0.015 and the CD87/uPAR (BENo, 1.00E1 nM) was 0.086. The CXCL8/IL-8 (BENo, 1.00E1 nM) was -0.015, the CXCL9/MIG (BENo, 1.00E1 nM) was 0.025 and the CXCL10/IP-10 (BENo, 1.00E1 nM) was 0.020. The CXCL11/I-TAC (BENo, 1.00E1 nM) was 0.032, the EGFR (BENo, 1.00E1 nM) was -0.005 and the HLA-DR (BENo, 1.00E1 nM) was 0.084. The IL-1alpha (BENo, 1.00E1 nM) was 0.021, the “Keratin 8/18” value (BENo, 1.00E1 nM) was 0.032 and the MMP-1 (BENo, 1.00E1 nM) was 0.022. The MMP-9 (BENo, 1.00E1 nM) was 0.026, the PAI-I (BENo, 1.00E1 nM) was 0.003 and the SRB (BENo, 1.00E1 nM) was 0.000675. It also gave a tPA (BENo, 1.00E1 nM) of -0.00178, a uPA (BENo, 1.00E1 nM) of 0.034 and a CCL26/Eotaxin-3 (BENo, 1.00E2 nM) of 0.029. The CD54/ICAM-1 (BENo, 1.00E2 nM) was -0.086, the CD87/uPAR (BENo, 1.00E2 nM) was 0.074 and the CXCL8/IL-8 (BENo, 1.00E2 nM) was 0.050. For the same compound, the CXCL9/MIG (BENo, 1.00E2 nM) was 0.027, the CXCL10/IP-10 (BENo, 1.00E2 nM) was 0.029 and the CXCL11/I-TAC (BENo, 1.00E2 nM) was 0.038. It also gave an EGFR (BENo, 1.00E2 nM) of -0.028, an HLA-DR (BENo, 1.00E2 nM) of 0.002 and an IL-1alpha (BENo, 1.00E2 nM) of 0.024. The “Keratin 8/18” value (BENo, 1.00E2 nM) was 0.019, the MMP-1 (BENo, 1.00E2 nM) was -0.044 and the MMP-9 (BENo, 1.00E2 nM) was -0.012. For the same compound, the PAI-I (BENo, 1.00E2 nM) was -0.079, the SRB (BENo, 1.00E2 nM) was -0.00126 and the tPA (BENo, 1.00E2 nM) was -0.018. It also gave a uPA (BENo, 1.00E2 nM) of 0.039, a CCL26/Eotaxin-3 (BENo, 1.00E3 nM) of 0.016 and a CD54/ICAM-1 (BENo, 1.00E3 nM) of -0.027. It also gave a CD87/uPAR (BENo, 1.00E3 nM) of 0.042, a CXCL8/IL-8 (BENo, 1.00E3 nM) of -0.000244 and a CXCL9/MIG (BENo, 1.00E3 nM) of 0.034. It also gave a CXCL10/IP-10 (BENo, 1.00E3 nM) of 0.016, a CXCL11/I-TAC (BENo, 1.00E3 nM) of 0.033 and an EGFR (BENo, 1.00E3 nM) of 0.028. For the same compound, the HLA-DR (BENo, 1.00E3 nM) was 0.049, the IL-1alpha (BENo, 1.00E3 nM) was 0.018 and the “Keratin 8/18” value (BENo, 1.00E3 nM) was 0.022. The MMP-1 (BENo, 1.00E3 nM) was -0.000325, the MMP-9 (BENo, 1.00E3 nM) was -0.016 and the PAI-I (BENo, 1.00E3 nM) was -0.078.
